In PMC4352194, “Physicochemical and Biological Properties of Oxovanadium(IV), Cobalt(II) and Nickel(II) Complexes with Oxydiacetate Anions” (Biological Trace Element Research, 2014):

Columns and labels:
[1] = Conductometric titration: limiting molar conductance and association constants; assay type: physicochemical; details: 298.15 K
Method: Conductometric measurements were accomplished on the Cerko Lab System microtitration unit fitted with a 5-mL Hamilton’s syringe, a CD-201 conductometric cell with the constant k = 0.096 cm^−1 (HYDROMET) and a self-made measuring cell equipped with a magnetic stirrer. The conductometric electrode was standardized with conductivity standards (aqueous KCl solutions) of conductivity 84 and 200 μS/cm, purchased from Hamilton Company. The measurements were carried out at 298.15 ± 0.10 K controlled by the Lauda E100 circulation thermostat. The titrant (5 mM [Co(ODA)(H2O)] or [Ni(ODA)(H2O)3]) was added to the titrand (0–50 % v/v DMSO-H2O) both at the same mole fraction of organic solvent, in increments of 0.01 mL, with a pause of 60 s. Each titration was repeated at least three times in order to check the reproducibility of the data. The limiting molar conductance values (Λo) and the association constants (logK ass) for the nickel(II) and cobalt(II) complexes were computed using the Shedlovsky’s and Pitt’s method. The physicochemical parameters of the binary solvents used in the calculations were taken from the literature. They are collected in Table 1.
The limiting molar conductance values (Λo) and the association constants (logK ass) for the nickel(II) and cobalt(II) complexes were computed using Shedlovsky’s and Pitt’s equations and are consequently collected in Table 4.

[2] = test system: Staphylococcus aureus; experiment: Disc diffusion test; assay type: cell-based; details: S. aureus
Method: (§1) The antimicrobial activity of complex compounds was assessed against Bacillus subtilis, Escherichia coli, Enterococcus faecalis, Pseudomonas aeruginosa, Staphylococcus aureus, Staphylococcus epidermidis (all strains were from the collection of the Department of Molecular Biology, University of Gdańsk). All bacteria were cultured in the Luria-Bertani (LB) broth at 310.15 K in the air with shaking. LB agar plates were prepared by the supplementation of LB broth with the 1.5 % bacteriological agar. Stock solutions of complex compounds were freshly prepared in the LB broth at the concentration of 25 mg/mL. Aliquots of 0.05 mL of bacterial culture at the optical density at 600 nm of 0.1 (inoculum 5 × 10^6 cells per plate) were spread on LB agar plates. Sterile filter paper discs (of 6 mm diameter) were impregnated with solutions of complex compounds prepared in the deionized water at the following amounts: 0.1, 0.2, 0.5 and 1.0 mg per disc and placed on agar plates. After an overnight incubation at 310.15 K, zones of bacterial growth inhibition were measured. Neomycin at the amount of 0.1 mg/disc was used as a control.

[3] = test system: Enterococcus faecalis; experiment: Disc diffusion test; assay type: cell-based; details: E. faecalis
Method: as §1

[4] = test system: Staphylococcus epidermidis; experiment: Disc diffusion test; assay type: cell-based; details: S. epidermidis
Method: as §1

[5] = test system: Escherichia coli; experiment: Disc diffusion test; assay type: cell-based; details: E. coli
Method: as §1

[6] = test system: Pseudomonas aeruginosa; experiment: Disc diffusion test; assay type: cell-based; details: P. aeruginosa
Method: as §1

[7] = Pitts method, DMSO-water 0 % v/v
[8] = Pitts method, DMSO-water 10 % v/v
[9] = Pitts method, DMSO-water 20 % v/v
[10] = Pitts method, DMSO-water 30 % v/v
[11] = Pitts method, DMSO-water 40 % v/v
[12] = Pitts method, DMSO-water 50 % v/v
[13] = Shedlovsky method, DMSO-water 0 % v/v
[14] = Shedlovsky method, DMSO-water 10 % v/v
[15] = Shedlovsky method, DMSO-water 20 % v/v
[16] = Shedlovsky method, DMSO-water 30 % v/v
[17] = Shedlovsky method, DMSO-water 40 % v/v
[18] = Shedlovsky method, DMSO-water 50 % v/v

SMILES	association constant logK ass [1, 7]	limiting molar conductance Λo [1, 7]	association constant logK ass [1, 8]	limiting molar conductance Λo [1, 8]	association constant logK ass [1, 9]	limiting molar conductance Λo [1, 9]	association constant logK ass [1, 10]	limiting molar conductance Λo [1, 10]	association constant logK ass [1, 11]	limiting molar conductance Λo [1, 11]	association constant logK ass [1, 12]	limiting molar conductance Λo [1, 12]	association constant logK ass [1, 13]	limiting molar conductance Λo [1, 13]	association constant logK ass [1, 14]	limiting molar conductance Λo [1, 14]	association constant logK ass [1, 15]	limiting molar conductance Λo [1, 15]	association constant logK ass [1, 16]	limiting molar conductance Λo [1, 16]	also measured
O.O.O.O.O.O.O.O.O.O=C([O-])COCC(=O)[O-].O=C([O-])COCC(=O)[O-].[Ni+2].[Ni+2] [Ni(ODA), [Ni(ODA)(H2O)3]·1.5H2O]	3.34 (±0.01)	216.74(±1.08) S cm^2 mol^−1	3.48 (±0.01)	161.75(±0.93) S cm^2 mol^−1	3.56 (±0.01)	114.72(±1.55) S cm^2 mol^−1	3.75 (±0.01)	91.35(±1.33) S cm^2 mol^−1	4.05 (±0.01)	52.00(±0.50) S cm^2 mol^−1	4.17 (±0.04)	29.49(±0.92) S cm^2 mol^−1	3.33 (±0.01)	216.10(±0.74) S cm^2 mol^−1	3.47 (±0.01)	161.00(±0.95) S cm^2 mol^−1	3.59 (±0.01)	119.83(±0.83) S cm^2 mol^−1	3.74 (±0.01)	90.63(±1.37) S cm^2 mol^−1	association constant logK ass [1, 17]: 4.05 (±0.02); limiting molar conductance Λo [1, 17]: 51.85(±0.61) S cm^2 mol^−1; association constant logK ass [1, 18]: 4.15 (±0.03); limiting molar conductance Λo [1, 18]: 28.80(±0.48) S cm^2 mol^−1; Zone of growth inhibition ([2]; 500 μg/disc): 7 mm; Zone of growth inhibition ([2]; 1000 μg/disc): 8 mm
O.O.O=C([O-])COCC(=O)[O-].[O]=[V+2] [VO(ODA), [VO(ODA)(H2O)2]]																					Zone of growth inhibition ([3]; 500 μg/disc): 9 mm; Zone of growth inhibition ([3]; 1000 μg/disc): 13 mm; Zone of growth inhibition ([4]; 1000 μg/disc): 12 mm
O.O.O.O=C(O)COCC(=O)O.[Co] [Co(ODA), [Co(ODA)(H2O)2]·H2O]	3.38 (±0.01)	226.58(±1.32) S cm^2 mol^−1	3.51 (±0.01)	173.97(±0.60) S cm^2 mol^−1	3.77 (±0.01)	134.29(±1.09) S cm^2 mol^−1	3.89 (±0.01)	92.53(±0.96) S cm^2 mol^−1	4.05 (±0.01)	57.02(±0.71) S cm^2 mol^−1	4.32 (±0.03)	29.74(±1.46) S cm^2 mol^−1	3.35 (±0.01)	223.49(±1.45) S cm^2 mol^−1	3.49 (±0.01)	171.55(±0.74) S cm^2 mol^−1	3.77 (±0.01)	133.47(±1.00) S cm^2 mol^−1	3.89 (±0.01)	92.16(±1.07) S cm^2 mol^−1	association constant logK ass [1, 17]: 4.09 (±0.03); limiting molar conductance Λo [1, 17]: 55.24(±0.84) S cm^2 mol^−1; association constant logK ass [1, 18]: 4.22 (±0.02); limiting molar conductance Λo [1, 18]: 28.52(±1.58) S cm^2 mol^−1; Zone of growth inhibition ([3]; 500 μg/disc): 10 mm; Zone of growth inhibition ([3]; 1000 μg/disc): 15 mm; Zone of growth inhibition ([5]; 500 μg/disc): 12 mm; Zone of growth inhibition ([5]; 1000 μg/disc): 14 mm; Zone of growth inhibition ([6]; 500 μg/disc): 14 mm; Zone of growth inhibition ([6]; 1000 μg/disc): 18 mm; Zone of growth inhibition ([2]; 100 μg/disc): 7 mm; Zone of growth inhibition ([2]; 500 μg/disc): 12 mm; Zone of growth inhibition ([2]; 1000 μg/disc): 17 mm; Zone of growth inhibition ([4]; 100 μg/disc): 8 mm; Zone of growth inhibition ([4]; 500 μg/disc): 19 mm; Zone of growth inhibition ([4]; 1000 μg/disc): 23 mm
